Test results as given in ChEMBL document CHEMBL3822409, “Synthesis and antitubercular activity of new 1,3,4-oxadiazoles bearing pyridyl and thiazolyl scaffolds” (Bioorg Med Chem Lett, 2016).
≈ marks a conversion by molar mass, not a printed value.

Key:
[1] = Selectivity index, ratio of CC50 for human HCT116 cells to MIC for dormant stage of Mycobacterium bovis BCG ATCC 35734; assay type: toxicity, cell-based, HCT-116; conditions: read-out: Selectivity Index
[2] = Selectivity index, ratio of CC50 for human HeLa cells to MIC for active stage of Mycobacterium bovis BCG ATCC 35734; assay type: toxicity, cell-based; conditions: read-out: Selectivity Index
[3] = system: Mycobacterium tuberculosis; test: Antimycobacterial activity against dormant stage of Mycobacterium tuberculosis H37Ra ATCC 25177 measured on day 12 by XTT reduction menadione assay; assay type: functional, organism-based; conditions: H37Ra ATCC 25177, 288 h
[4] = Selectivity index, ratio of CC50 for human HeLa cells to MIC for dormant stage of Mycobacterium bovis BCG ATCC 35734; assay type: toxicity, cell-based; conditions: read-out: Selectivity Index
[5] = Cytotoxicity against human PANC1 cells by MTT assay; assay type: cell-based, PANC-1
[6] = Cytotoxicity against human THP1 cells by MTT assay; assay type: cell-based, THP-1
[7] = Selectivity index, ratio of CC50 for human THP1 cells to MIC for active stage of Mycobacterium bovis BCG ATCC 35734; assay type: toxicity, cell-based, THP-1; conditions: read-out: Selectivity Index
[8] = Selectivity index, ratio of CC50 for human PANC1 cells to MIC for active stage of Mycobacterium bovis BCG ATCC 35734; assay type: toxicity, cell-based, PANC-1; conditions: read-out: Selectivity Index
[9] = Selectivity index, ratio of CC50 for human HCT116 cells to MIC for active stage of Mycobacterium bovis BCG ATCC 35734; assay type: toxicity, cell-based, HCT-116; conditions: read-out: Selectivity Index
[10] = Selectivity index, ratio of CC50 for human PANC1 cells to MIC for dormant stage of Mycobacterium bovis BCG ATCC 35734; assay type: toxicity, cell-based, PANC-1; conditions: read-out: Selectivity Index
[11] = Cytotoxicity against human HeLa cells by MTT assay; assay type: cell-based
[12] = system: Mycobacterium tuberculosis; test: Antimycobacterial activity against active stage of Mycobacterium tuberculosis H37Ra ATCC 25177 measured on day 8 by XTT reduction menadione assay; assay type: functional, organism-based; conditions: H37Ra ATCC 25177, 192 h
[13] = Cytotoxicity against human HCT116 cells by MTT assay; assay type: cell-based, HCT-116
[14] = Selectivity index, ratio of CC50 for human THP1 cells to MIC for dormant stage of Mycobacterium bovis BCG ATCC 35734; assay type: toxicity, cell-based, THP-1; conditions: read-out: Selectivity Index

Row | SMILES | selectivity ratio [1] | selectivity ratio [2] | IC50 [3] [µg/mL] | MIC [3] [µg/mL] | selectivity ratio [4] | CC50 [5] [µg/mL] | CC50 [6] [µg/mL] | selectivity ratio [7] | selectivity ratio [8] | selectivity ratio [9] | selectivity ratio [10] | CC50 [11] [µg/mL] | IC50 [12] [µg/mL] | MIC [12] [µg/mL] | CC50 [13] [µg/mL] | selectivity ratio [14]
1 | Cc1nc(-c2cccnc2)sc1-c1nnc(-c2ccccc2)o1 | 3 | 3 | > 30 | > 30 | 3 | > 100 | > 100 | 3 | 3 | 3 | 3 | > 100 | > 30 | > 30 | > 100 | 3
2 | Cc1nc(-c2cccnc2)sc1-c1nnc(-c2ccc(O)cc2)o1 | 3 | 3 | > 30 | > 30 | 3 | > 100 | > 100 | 3 | 3 | 3 | 3 | > 100 | > 30 | > 30 | > 100 | 3
3 | Cc1nc(-c2cccnc2)sc1-c1nnc(-c2ccc([N+](=O)[O-])cc2)o1 | 3 | 3 | > 30 | > 30 | 3 | > 100 | > 100 | 3 | 3 | 3 | 3 | > 100 | > 30 | > 30 | > 100 | 3
4 | Cc1nc(-c2cccnc2)sc1-c1nnc(-c2cccc(Cl)c2Cl)o1 | 3 | 3 | > 30 | > 30 | 3 | > 100 | > 100 | 3 | 3 | 3 | 3 | > 100 | > 30 | > 30 | > 100 | 3
5 | COc1ccccc1-c1nnc(-c2sc(-c3cccnc3)nc2C)o1 | 25 | 38 | > 30 | > 30 | 25 | > 100 | > 100 | 38 | 38 | 38 | 25 | > 100 | > 30 | > 30 | > 100 | 25
6 | Cc1ccc(-c2nnc(-c3sc(-c4cccnc4)nc3C)o2)cc1 | 3 | 3 | > 30 | > 30 | 3 | > 100 | > 100 | 3 | 3 | 3 | 3 | > 100 | > 30 | > 30 | > 100 | 3
7 | Cc1nc(-c2cccnc2)sc1-c1nnc(-c2ccncc2)o1 | 2 | 2 | > 30 | > 30 | 2 | > 100 | > 100 | 2 | 2 | 2 | 2 | > 100 | > 30 | > 30 | > 100 | 2
8 | Cc1ccccc1-c1nnc(-c2sc(-c3cccnc3)nc2C)o1 | 20 | 17 | > 30 | > 30 | 20 | > 100 | > 100 | 17 | 17 | 17 | 20 | > 100 | > 30 | > 30 | > 100 | 20
9 | Cc1nc(-c2cccnc2)sc1-c1nnc(-c2ccccc2Cl)o1 | 21 | 19 | > 30 | > 30 | 21 | > 100 | > 100 | 19 | 19 | 19 | 21 | > 100 | > 30 | > 30 | > 100 | 21
10 | Cc1cccc(-c2nnc(-c3sc(-c4cccnc4)nc3C)o2)c1 | 3 | 3 | > 30 | > 30 | 3 | > 100 | > 100 | 3 | 3 | 3 | 3 | > 100 | > 30 | > 30 | > 100 | 3
11 | Cc1nc(-c2cccnc2)sc1-c1nnc(-c2ccc(Br)cc2)o1 | 3 | 3 | > 30 | > 30 | 3 | > 100 | > 100 | 3 | 3 | 3 | 3 | > 100 | > 30 | > 30 | > 100 | 3
12 | Cc1nc(-c2cccnc2)sc1-c1nnc(Cc2ccccc2)o1 | 10 | 9 | > 30 | > 30 | 10 | > 100 | > 100 | 9 | 9 | 9 | 10 | > 100 | > 30 | > 30 | > 100 | 10
13 | Cc1nc(-c2cccnc2)sc1-c1nnc(-c2cccnc2)o1 | 1 | 2 | > 30 | > 30 | 1 | > 100 | > 100 | 2 | 2 | 2 | 1 | > 100 | > 30 | > 30 | > 100 | 1
14 | Cc1nc(-c2cccnc2)sc1-c1nnc(-c2ccccc2[N+](=O)[O-])o1 | 17 | 39 | > 30 | > 30 | 17 | > 100 | > 100 | 39 | 39 | 39 | 17 | > 100 | > 30 | > 30 | > 100 | 17
15 | Cc1nc(-c2cccnc2)sc1-c1nnc(-c2ccc(Cl)cc2)o1 | 3 | 3 | > 30 | > 30 | 3 | > 100 | > 100 | 3 | 3 | 3 | 3 | > 100 | > 30 | > 30 | > 100 | 3
16 | CC(=O)O[C@H]1C(=O)[C@@]2(C)[C@H]([C@H](OC(=O)c3ccccc3)[C@]3(O)C[C@H](OC(=O)[C@H](O)[C@@H](NC(=O)c4ccccc4)c4ccccc4)C(C)=C1C3(C)C)[C@]1(OC(C)=O)CO[C@@H]1C[C@@H]2O [PACLITAXEL] |  |  |  |  |  | 0.128 (≈ 0.15 µM) | 0.137 (≈ 0.161 µM) |  |  |  |  | 0.0048 (≈ 0.00562 µM) |  |  | 1.85 (≈ 2.17 µM) | 
17 | CO[C@H]1/C=C/O[C@@]2(C)Oc3c(C)c(O)c4c(O)c(c(/C=N/N5CCN(C)CC5)c(O)c4c3C2=O)NC(=O)/C(C)=C\C=C\[C@H](C)[C@H](O)[C@@H](C)[C@@H](O)[C@@H](C)[C@H](OC(C)=O)[C@@H]1C [RIFAMPIN] | 714 | 1250 | 0.0024 (≈ 0.00292 µM) | 0.03 (≈ 0.0365 µM) | 714 | > 100 | > 100 | 1250 | 1250 | 1250 | 714 | > 100 |  | 0.02 (≈ 0.0243 µM) | > 100 | 714
